The source of these data is publication PMC6058720, “Dual-ligand modified liposomes provide effective local targeted delivery of lung-cancer drug by antibody and tumor lineage-homing cell-penetrating peptide” (Drug Delivery, 2018).

Series [1] can be described thus: In vitro drug release study (dialysis, PBS pH 7.4). It is filed as physicochemical. The settings on record: PBS pH 7.4, 37 °C, over 96 h, dialysis under sink conditions. How it is done: Briefly, 1 mL of dl-TPL-lip, CA IX-TPL-lip, CPP33-TPL-lip, TPL-lip, and free TPL solution (0.05 mg/mL) was placed into dialysis tubes with a molecular cut-off of MWCO 12–14 kDa and dialyzed in 10 mL of PBS (pH 7.4) at 37 °C. At predetermined time intervals, 100 μL of release medium was taken out and replaced with equal volume of fresh medium. The concentration of TPL in release medium was then determined by UPLC.

Series [2] in a line: Pharmacokinetics study after pulmonary (endotracheal) administration to rats. Particulars: rat, in vivo, 0.5 mg/kg. Also noted: species or system Sprague Dawley rats. The procedure:
Sprague–Dawley (SD) rats were divided randomly into five groups (n = four per group). Rats were fasted for 12 h before the experiment, but allowed water ad libitum. Free TPL, TPL-lip, CPP33-TPL-lip, CA IX-TPL-lip, and dl-TPL-lip were administered directly via pulmonary delivery using a Microsprayer Aerosolizer Pulmonary Aerosol Kit for Mouse Model PAK-MSA (Penn-Century, Inc. Wyndmoor, PA19038, USA) at a dose of 0.5 mg/kg. Blood samples (0.4 mL) were obtained before dosing and at designated time points (0.083, 0.5, 1, 2, 4, 6, 8, 12 h). The samples were collected into heparinized tube from the suborbital veins and were centrifuged for 10 min at 4,000 rpm. The plasma was analyzed by Agilent 1290 Ultra High Performance Liquid Chromatograph with Agilent 6460 Triple Quadrupole Mass Spectrometer system (UHPLC-QQQ MS/MS, Santa Clara, USA) (Xue et al., [2012]; Zhuang et al., [2013]).
The TPL pharmacokinetic parameters in […] after endotracheal administration were calculated and summarized by DAS 2.1.1. Statistical analyses for anti-cancer effect study were evaluated by two-way ANOVA with Bonferroni posttests using GraphPad Prism 6 (GraphPad Software, Inc, La Jolla, USA). […]
44 Analytical method for pharmacokinetics study
45 Hydrocortisone was added (50 μL, 200 ng/mL) as an internal standard (IS) to 0.2
46 mL of plasma. The samples were mixed, and extracted with ethyl acetate (750 μL)
47 followed by vortexing for 4min and centrifuging for 10min at 8000 rpm. The upper
48 organic phase was carefully transferred and e vaporated to dryness in vacuum. The
49 residues were dissolved in 100μL methanol and centrifuged at 4000rpm for 10 min,
50 then the supernatant was collected and injected into the Agilent 1290 Ultra High
51 Performance Liquid Chromatograph with Agilent 6460 Triple Quadrupole Mass
52 Spectrometer system (UHPLC-QQQ MS/MS).
53 Chromatography conditions: Waters Acquity BEH C18 (2.1×50 mm); Mobile phase
54 0.1% formic acid in water: 0.1% formic acid in acetonitrile =80:20 v/v; Flow rate 0.35
55 mL/min; Running time 10 min.
56 Mass spectrometer conditions: Ion Source Agilent Jet Stream electro spray
57 ionization (AJS ESI); Positive mode; Gas Temperature 300 °C; Gas flow rate 8 L/min;
58 Nebulizer 40 psi; SheathGasHeater 350°C; SheathGasFlow 8 L/min; Capillary 3500
60 Firstly, optimization of mass spectrometry was initiated by automatic tuning of the
61 instrument (Figure S1). Method validation was conducted before the sample analysis.
62 The specificity of the established method was assessed by comparing the
63 chromatograms of blank plasma, blank plasma with TPL, blank plasma with IS, and
64 plasma after endotracheal administration (Figure S2). The calibration curve in rat
65 plasma was linear over the ranges 10-2500 ng/mL in rat plasma (y=0.375035x +
67 accuracy and precision both intra-day and inter-day were less than 10%. The method
68 was sufficiently accurate and consistent for proceeding for the biological analysis of
69 TPL (Table S1). Therefore, the established method was applied to the analysis of rat

For series [3], the system named is orthotopic lung tumor (A549-Red-FLuc cells). Briefly: Anti-cancer effect in orthotopic mice model of lung cancer (bioluminescence imaging). The class given is in vivo, BALB/c nu/nu mice. Particulars: pulmonary delivery, 0.3 mg/kg, four doses; control increased ∼6-fold; n = 5. The procedure:
An orthotopic lung tumor-bearing mice model was established as previously reported. Briefly, the male BALB/c nu/nu mice (7–8 weeks) were anesthetized with 5% of chloral hydrate and 100 μL of A549-Red-FLuc cells (2 × 10^6 cells) solution in Matrigel (1:1). Experimental solutions were injected percutaneously into the right lateral thorax of each mouse using a 1 mL syringe with 29-gauge needle. On day seven after tumor cell inoculation, bioluminescence was measured using the IVIS Lumina XR system (Caliper, Hopking, MA) to check the successful establishment of lung cancer. D-luciferin substrate (i.p., 150 mg/kg in 0.9% saline solution) was injected 15 min before bioluminescence imaging. On day 19 after tumor cell inoculation, the mice were sacrificed and lungs were immediately resected.
On day seven following tumor cells inoculation, the orthothopic lung tumor-bearing mice (n = 30) were grouped into six treatment groups based on equivalent signal intensity of the tumor bioluminescence: Free TPL, TPL-lip, CA IX-TPL-lip, CPP33-TPL-lip, dl-TPL-lip, and control group with saline. […] Tumor growth was monitored weekly by bioluminescence imaging as before, during, and after the TPL treatment. Body weight of the mice was recorded weekly during the course of the study. […]
The TPL pharmacokinetic parameters in mice after endotracheal administration were calculated and summarized by DAS 2.1.1. […]

Details of series [4]: method as in Chen et al., [2012a]; Reno et al., [2015]; Li et al., [2016]. The settings on record: ref Chen et al., [2012a]; Reno et al., [2015]; Li et al., [2016]; cited from earlier work.
The mark [5] stands for this setting: Sprague-Dawley, inhaled or intranasal, endotracheal administration, plasma TPL, n = 4.

Values after ≈ are worked out from the molar mass of the structure shown.

The AUC(0-inf) is total exposure, with the tail of the curve extrapolated. As usually defined, the AUC(0-t) is the area under the concentration-time curve up to a stated or last time point. A high value points to more exposure. For orientation: Cmax means the maximum level reached in the sampled fluid or tissue. For orientation: Tmax means the time from dosing to the highest level. On to `CC(C)[C@]12O[C@H]1[C@@H]1O[C@]13[C@]1(O[C@H]1C[C@H]1C4=C(CC[C@@]13C)C(=O)OC4)[C@@H]2O` [Free TPL, Triptolide], for which, in series [1], the TPL release profile result is on record as “rapid release profile”. Further, in series [2] (setting [5]), the AUC(0-inf) came to 225 ± 63.8 ng·h/mL, the AUC(0-t) stood at 186 ± 36.5 ng·h/mL, the highest level (Cmax) was 188 ± 42.7 ng/mL and the Tmax amounted to 4.98 min. In addition, in series [2], the “Cmax of TPL in blood compared to liposomal TPL” value is reported as “three-fold higher” and the t1/2 is reported as 2.98 ± 0.54 H. For the same compound, the “Increase of tumors (bioluminescence) on day 31” value in series [3] is reported as roughly 3 fold. For the same compound, the Solubility in water in series [4] is 17 µg/mL (≈ 47.2 µM).
